Reference: PubChem BioAssay AID1259407 (Chemical Carcinogenesis Research Information System (CCRIS), 2018)
The source made the active and inactive calls. No rule for the calls is given here.

System: CCRIS mutagenicity, Ames/micronucleus/aberration tests
Assay: CCRIS mutagenicity studies
[1] = Test System: AMES SALMONELLA TYPHIMURIUM, Strain/Indicator: TA98, Metabolic Activation: NONE, Method: STANDARD PLATE
[2] = Test System: AMES SALMONELLA TYPHIMURIUM, Strain/Indicator: TA98, Metabolic Activation: RAT, LIVER, S-9, AROCLOR 1254, Method: STANDARD PLATE
[3] = Test System: AMES SALMONELLA TYPHIMURIUM, Strain/Indicator: TA100, Metabolic Activation: NONE, Method: STANDARD PLATE
[4] = Test System: AMES SALMONELLA TYPHIMURIUM, Strain/Indicator: TA100, Metabolic Activation: RAT, LIVER, S-9, AROCLOR 1254, Method: STANDARD PLATE
[5] = Test System: AMES SALMONELLA TYPHIMURIUM, Strain/Indicator: TA102, Metabolic Activation: NONE, Method: PREINCUBATION
[6] = Test System: AMES SALMONELLA TYPHIMURIUM, Strain/Indicator: TA1537, Metabolic Activation: NONE, Method: STANDARD PLATE
[7] = Test System: AMES SALMONELLA TYPHIMURIUM, Strain/Indicator: TA1535, Metabolic Activation: NONE, Method: STANDARD PLATE

CCOCC=O
mutagenic call (Test System: AMES SALMONELLA TYPHIMURIUM, Strain/Indicator: TA97A, Metabolic Activation: NONE, Method: STANDARD PLATE): inactive; negative
mutagenic call (Test System: AMES SALMONELLA TYPHIMURIUM, Strain/Indicator: TA97A, Metabolic Activation: RAT, LIVER, S-9, AROCLOR 1254, Method: STANDARD PLATE): inactive; negative
mutagenic call [1]: inactive; negative
mutagenic call [2]: inactive; negative
mutagenic call [3]: inactive; negative
mutagenic call [4]: inactive; negative
mutagenic call (Test System: AMES SALMONELLA TYPHIMURIUM, Strain/Indicator: TA102, Metabolic Activation: NONE, Method: STANDARD PLATE): inactive; negative
mutagenic call (Test System: AMES SALMONELLA TYPHIMURIUM, Strain/Indicator: TA102, Metabolic Activation: RAT, LIVER, S-9, AROCLOR 1254, Method: STANDARD PLATE): inactive; negative

Cc1c(N)nc(C(CC(N)=O)NCC(N)C(N)=O)nc1C(=O)NC(C(=O)NC(C)C(O)C(C)C(=O)NC(C(=O)NCCc1nc(-c2nc(C(=O)NCCc3cnc[nH]3)cs2)cs1)C(C)O)C(OC1OC(CO)C(O)C(O)C1OC1OC(CO)C(O)C(OC(N)=O)C1O)c1cnc[nH]1 (stereo unspecified)
mutagenic call [5]: active; positive

CCN(C)N=O
mutagenic call (Test System: AMES SALMONELLA TYPHIMURIUM, Strain/Indicator: TA100, Metabolic Activation: HAMSTER, LIVER, S-9, Method: PREINCUBATION): active; positive
mutagenic call (Test System: AMES SALMONELLA TYPHIMURIUM, Strain/Indicator: TA100, Metabolic Activation: HUMAN, LIVER, S-9, Method: PREINCUBATION): inactive; negative
mutagenic call (Test System: AMES SALMONELLA TYPHIMURIUM, Strain/Indicator: TA100, Metabolic Activation: PIG, LIVER, S-9, Method: PREINCUBATION): inactive; negative
mutagenic call (Test System: AMES SALMONELLA TYPHIMURIUM, Strain/Indicator: TA100, Metabolic Activation: RAT, LIVER, S-9, Method: PREINCUBATION): inactive; negative

COc1cccc(CN2[C@@H]3c4ccccc4-c4ccccc4[C@@H]32)c1 (stereo partly specified)
mutagenic call [3]: active; positive

CC(C)CC(=O)Nc1snc2ccccc12
mutagenic call [3]: inactive; negative
mutagenic call (Test System: AMES SALMONELLA TYPHIMURIUM, Strain/Indicator: TA100, Metabolic Activation: S-9, Method: STANDARD PLATE): inactive; negative
mutagenic call [6]: inactive; negative
mutagenic call (Test System: AMES SALMONELLA TYPHIMURIUM, Strain/Indicator: TA1537, Metabolic Activation: S-9, Method: STANDARD PLATE): inactive; negative

CC(O)CN1CC(C)OC1=O (stereo unspecified)
mutagenic call (Test System: AMES SALMONELLA TYPHIMURIUM, Strain/Indicator: TA98, Metabolic Activation: HAMSTER, LIVER, S-9, AROCLOR 1254 (10%), Method: STANDARD PLATE): inactive; negative
mutagenic call [1]: inactive; negative
mutagenic call (Test System: AMES SALMONELLA TYPHIMURIUM, Strain/Indicator: TA98, Metabolic Activation: RAT, LIVER, S-9, AROCLOR 1254 (10%), Method: STANDARD PLATE): inactive; negative
mutagenic call (Test System: AMES SALMONELLA TYPHIMURIUM, Strain/Indicator: TA100, Metabolic Activation: HAMSTER, LIVER, S-9, AROCLOR 1254 (10%), Method: STANDARD PLATE): inactive; negative
mutagenic call [3]: inactive; negative
mutagenic call (Test System: AMES SALMONELLA TYPHIMURIUM, Strain/Indicator: TA100, Metabolic Activation: RAT, LIVER, S-9, AROCLOR 1254 (10%), Method: STANDARD PLATE): inactive; negative
mutagenic call (Test System: AMES SALMONELLA TYPHIMURIUM, Strain/Indicator: TA1535, Metabolic Activation: HAMSTER, LIVER, S-9, AROCLOR 1254 (10%), Method: STANDARD PLATE): inactive; negative
mutagenic call [7]: inactive; negative
mutagenic call (Test System: AMES SALMONELLA TYPHIMURIUM, Strain/Indicator: TA1535, Metabolic Activation: RAT, LIVER, S-9, AROCLOR 1254 (10%), Method: STANDARD PLATE): inactive; negative
mutagenic call (Test System: AMES SALMONELLA TYPHIMURIUM, Strain/Indicator: TA1537, Metabolic Activation: HAMSTER, LIVER, S-9, AROCLOR 1254 (10%), Method: STANDARD PLATE): inactive; negative
mutagenic call [6]: inactive; negative
mutagenic call (Test System: AMES SALMONELLA TYPHIMURIUM, Strain/Indicator: TA1537, Metabolic Activation: RAT, LIVER, S-9, AROCLOR 1254 (10%), Method: STANDARD PLATE): inactive; negative
mutagenic call (Test System: AMES SALMONELLA TYPHIMURIUM, Strain/Indicator: TA1538, Metabolic Activation: HAMSTER, LIVER, S-9, AROCLOR 1254 (10%), Method: STANDARD PLATE): inactive; negative
mutagenic call (Test System: AMES SALMONELLA TYPHIMURIUM, Strain/Indicator: TA1538, Metabolic Activation: NONE, Method: STANDARD PLATE): inactive; negative
mutagenic call (Test System: AMES SALMONELLA TYPHIMURIUM, Strain/Indicator: TA1538, Metabolic Activation: RAT, LIVER, S-9, AROCLOR 1254 (10%), Method: STANDARD PLATE): inactive; negative
mutagenic call (Test System: MOUSE LYMPHOMA, Strain/Indicator: L5178Y (TK+/TK-), Metabolic Activation: NONE, Method: SUSPENSION/PLATE): active; positive. reevaluation of results: positive
mutagenic call (Test System: MOUSE LYMPHOMA, Strain/Indicator: L5178Y (TK+/TK-), Metabolic Activation: RAT, LIVER, S-9, AROCLOR 1254, Method: SUSPENSION/PLATE): active; positive. reevaluation of results: equivocal

O=[N+]([O-])c1ccc2ccc3cc4c(c5ccc1c2c35)C=CCC4
mutagenic call (Test System: AMES SALMONELLA TYPHIMURIUM, Strain/Indicator: TA98(1,8-DNP6), Metabolic Activation: NONE, Method: STANDARD PLATE): active; positive
mutagenic call (Test System: AMES SALMONELLA TYPHIMURIUM, Strain/Indicator: TA98(1,8-DNP6), Metabolic Activation: RAT, LIVER, S-9, AROCLOR 1254, Method: STANDARD PLATE): active; positive
mutagenic call (Test System: AMES SALMONELLA TYPHIMURIUM, Strain/Indicator: TA98(NR), Metabolic Activation: NONE, Method: STANDARD PLATE): active; positive
mutagenic call (Test System: AMES SALMONELLA TYPHIMURIUM, Strain/Indicator: TA98(NR), Metabolic Activation: RAT, LIVER, S-9, AROCLOR 1254, Method: STANDARD PLATE): active; positive
mutagenic call [1]: active; positive
mutagenic call [2]: active; positive
mutagenic call [3]: inactive; negative
mutagenic call [4]: active; positive

O=[N+]([O-])c1ccc(OC2CO2)cc1 (stereo unspecified)
mutagenic call [3]: active; positive
mutagenic call [7]: active; positive

II
mutagenic call (End Point: IN VITRO CHROMOSOMAL ABERRATIONS, Test System: SYRIAN HAMSTER EMBRYO (SHE) CELLS, Metabolic Activation: NONE): active; positive (structural changes)

CNN
mutagenic call (End Point: IN VITRO CHROMOSOMAL ABERRATIONS, Test System: CHL CELLS, Metabolic Activation: RAT, LIVER, S-9, SODIUM PHENOBARBITAL AND 5,6-BENZOFLAVONE): active; positive (structural changes)
mutagenic call (Test System: AMES SALMONELLA TYPHIMURIUM, Strain/Indicator: TA98, Metabolic Activation: NONE, Method: PREINCUBATION): inactive; negative
mutagenic call (Test System: AMES SALMONELLA TYPHIMURIUM, Strain/Indicator: TA98, Metabolic Activation: RAT LIVER S-9, PHENOBARBITAL AND BETA-NAPHTHOFLAVONE, Method: PREINCUBATION): inactive; negative
mutagenic call (Test System: AMES SALMONELLA TYPHIMURIUM, Strain/Indicator: TA100, Metabolic Activation: RAT LIVER S-9, PHENOBARBITAL AND BETA-NAPHTHOFLAVONE, Method: PREINCUBATION): inactive; negative
mutagenic call [5]: active; positive
mutagenic call (Test System: AMES SALMONELLA TYPHIMURIUM, Strain/Indicator: TA1535, Metabolic Activation: RAT LIVER S-9, PHENOBARBITAL AND BETA-NAPHTHOFLAVONE, Method: PREINCUBATION): active; positive
mutagenic call (Test System: AMES SALMONELLA TYPHIMURIUM, Strain/Indicator: TA1535, Metabolic Activation: RAT, LIVER, S-9, AROCLOR 1254, Method: PREINCUBATION): inactive; negative
mutagenic call (Test System: AMES SALMONELLA TYPHIMURIUM, Strain/Indicator: TA1537, Metabolic Activation: NONE, Method: PREINCUBATION): inactive; negative
mutagenic call (Test System: AMES SALMONELLA TYPHIMURIUM, Strain/Indicator: TA1537, Metabolic Activation: RAT LIVER S-9, PHENOBARBITAL AND BETA-NAPHTHOFLAVONE, Method: PREINCUBATION): inactive; negative
mutagenic call (Test System: AMES SALMONELLA TYPHIMURIUM, Strain/Indicator: TA1537, Metabolic Activation: RAT, LIVER, S-9, AROCLOR 1254, Method: PREINCUBATION): inactive; negative
mutagenic call (Test System: E. COLI, Strain/Indicator: WP2 UVRA, Metabolic Activation: NONE, Method: PREINCUBATION): active; positive
mutagenic call (Test System: E.COLI, Strain/Indicator: WP2UVRA, Metabolic Activation: RAT LIVER S-9, PHENOBARBITAL AND BETA-NAPHTHOFLAVONE, Method: PREINCUBATION): active; positive

O=C(CC(O)C(=O)OCCBr)OCCBr (stereo unspecified)
mutagenic call [1]: inactive; negative
mutagenic call [3]: inactive; negative
mutagenic call [4]: active; positive
